# Laboratory results as given in ChEMBL document CHEMBL5678818, “Discovery of potent SOS1 inhibitors that block RAS activation via disruption of the RAS-SOS1 interaction” (Proc Natl Acad Sci U S A, 2019).
# What was measured:
# [1] = target: Atypical kinase COQ8A, mitochondrial (Homo sapiens) (UniProt Q8NI60); test: Inhibition of ADCK3 (unknown origin) assessed as residual activity at 1000 nM by KINOMEscan analysis relative to control
# [2] = target: Mitogen-activated protein kinase 11 (Homo sapiens) (UniProt Q15759); test: Inhibition of p38-beta (unknown origin) assessed as residual activity at 1000 nM by KINOMEscan analysis relative to control
# [3] = target: T1, Ephrin type-B receptor 1 (Homo sapiens) (UniProt P54762); test: Inhibition of EPHB1 (unknown origin) assessed as residual activity at 1000 nM by KINOMEscan analysis relative to control
# T1 sequence (whole entry): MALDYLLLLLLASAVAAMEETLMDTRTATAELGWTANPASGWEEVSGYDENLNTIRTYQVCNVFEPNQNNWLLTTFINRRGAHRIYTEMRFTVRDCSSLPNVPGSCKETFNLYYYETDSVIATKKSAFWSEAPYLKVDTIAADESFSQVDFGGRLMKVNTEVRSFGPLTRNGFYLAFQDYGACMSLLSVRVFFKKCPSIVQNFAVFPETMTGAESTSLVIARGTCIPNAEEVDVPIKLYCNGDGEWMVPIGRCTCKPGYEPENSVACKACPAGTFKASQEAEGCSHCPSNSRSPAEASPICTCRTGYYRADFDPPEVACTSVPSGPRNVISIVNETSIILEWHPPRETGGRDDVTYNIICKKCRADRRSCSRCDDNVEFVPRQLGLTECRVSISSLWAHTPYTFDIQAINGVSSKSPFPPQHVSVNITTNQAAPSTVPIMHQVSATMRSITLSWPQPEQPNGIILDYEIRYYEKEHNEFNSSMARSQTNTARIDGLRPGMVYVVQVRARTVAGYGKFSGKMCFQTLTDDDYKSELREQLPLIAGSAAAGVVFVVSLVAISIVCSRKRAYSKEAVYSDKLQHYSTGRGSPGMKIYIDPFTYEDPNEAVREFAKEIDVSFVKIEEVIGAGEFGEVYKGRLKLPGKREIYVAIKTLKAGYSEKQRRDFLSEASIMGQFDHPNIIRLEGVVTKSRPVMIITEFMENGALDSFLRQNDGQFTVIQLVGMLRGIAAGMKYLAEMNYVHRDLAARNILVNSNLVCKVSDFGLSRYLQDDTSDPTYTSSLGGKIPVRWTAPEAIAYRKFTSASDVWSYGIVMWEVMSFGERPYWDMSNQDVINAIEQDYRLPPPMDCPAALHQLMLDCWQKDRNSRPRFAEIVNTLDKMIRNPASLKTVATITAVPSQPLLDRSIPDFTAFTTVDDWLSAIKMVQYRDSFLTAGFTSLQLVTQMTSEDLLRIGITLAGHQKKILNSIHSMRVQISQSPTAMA
# [4] = target: T2, Cytoplasmic tyrosine-protein kinase BMX (Homo sapiens) (UniProt P51813); test: Inhibition of BMX (unknown origin) assessed as residual activity at 1000 nM by KINOMEscan analysis relative to control
# T2 sequence (whole entry): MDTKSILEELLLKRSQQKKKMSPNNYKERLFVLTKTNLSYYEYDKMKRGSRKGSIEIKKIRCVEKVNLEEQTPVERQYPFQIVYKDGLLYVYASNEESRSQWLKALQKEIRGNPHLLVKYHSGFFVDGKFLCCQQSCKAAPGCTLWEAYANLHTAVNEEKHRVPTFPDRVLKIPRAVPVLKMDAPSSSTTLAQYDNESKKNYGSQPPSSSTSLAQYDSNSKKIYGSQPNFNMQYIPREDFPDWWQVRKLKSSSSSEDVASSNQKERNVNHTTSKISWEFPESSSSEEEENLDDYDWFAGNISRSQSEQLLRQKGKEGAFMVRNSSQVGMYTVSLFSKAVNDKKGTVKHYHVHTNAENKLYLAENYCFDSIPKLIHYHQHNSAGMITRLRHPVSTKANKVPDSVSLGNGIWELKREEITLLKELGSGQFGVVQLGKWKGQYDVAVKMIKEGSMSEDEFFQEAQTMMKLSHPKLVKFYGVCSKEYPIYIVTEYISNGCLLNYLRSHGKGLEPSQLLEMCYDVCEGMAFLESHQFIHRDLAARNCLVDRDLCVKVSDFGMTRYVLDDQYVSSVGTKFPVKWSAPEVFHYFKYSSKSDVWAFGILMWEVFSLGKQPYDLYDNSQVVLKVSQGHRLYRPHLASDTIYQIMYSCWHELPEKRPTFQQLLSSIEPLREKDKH
# [5] = target: Tyrosine-protein kinase ABL1 (Homo sapiens) (UniProt P00519); test: Inhibition of nonphosphorylated ABL1 (unknown origin) assessed as residual activity at 1000 nM by KINOMEscan analysis relative to control
# [6] = target: T3, Mitogen-activated protein kinase kinase kinase kinase 2 (Homo sapiens) (UniProt Q12851); test: Inhibition of MAP4K2 (unknown origin) assessed as residual activity at 1000 nM by KINOMEscan analysis relative to control
# T3 sequence (whole entry): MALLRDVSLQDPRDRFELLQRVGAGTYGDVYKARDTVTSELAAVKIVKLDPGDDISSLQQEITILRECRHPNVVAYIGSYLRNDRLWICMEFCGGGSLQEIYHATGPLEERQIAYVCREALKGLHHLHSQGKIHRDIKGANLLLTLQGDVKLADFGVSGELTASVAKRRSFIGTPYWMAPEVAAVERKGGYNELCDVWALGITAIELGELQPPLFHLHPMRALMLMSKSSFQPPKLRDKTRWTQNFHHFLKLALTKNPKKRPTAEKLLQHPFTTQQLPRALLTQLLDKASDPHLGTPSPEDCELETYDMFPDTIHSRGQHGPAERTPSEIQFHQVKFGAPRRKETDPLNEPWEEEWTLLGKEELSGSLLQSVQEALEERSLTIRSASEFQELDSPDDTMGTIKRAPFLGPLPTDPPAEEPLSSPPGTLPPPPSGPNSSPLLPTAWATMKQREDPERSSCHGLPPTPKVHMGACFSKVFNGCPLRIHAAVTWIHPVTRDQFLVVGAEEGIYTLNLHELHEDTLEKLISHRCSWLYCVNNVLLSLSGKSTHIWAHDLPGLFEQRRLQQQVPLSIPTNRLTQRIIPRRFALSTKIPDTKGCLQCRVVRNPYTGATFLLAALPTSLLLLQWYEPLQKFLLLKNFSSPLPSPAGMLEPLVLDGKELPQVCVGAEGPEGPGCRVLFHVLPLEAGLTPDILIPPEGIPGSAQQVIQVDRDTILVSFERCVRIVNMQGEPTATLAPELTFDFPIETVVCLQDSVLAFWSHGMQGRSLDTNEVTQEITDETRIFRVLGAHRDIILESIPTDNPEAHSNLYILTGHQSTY
# [7] = target: Serine/threonine-protein kinase Nek4 (Homo sapiens) (UniProt P51957); test: Inhibition of NEK4 (unknown origin) assessed as residual activity at 1000 nM by KINOMEscan analysis relative to control
# Sequence of Serine/threonine-protein kinase Nek4 (Homo sapiens) (P51957 whole entry, looked up): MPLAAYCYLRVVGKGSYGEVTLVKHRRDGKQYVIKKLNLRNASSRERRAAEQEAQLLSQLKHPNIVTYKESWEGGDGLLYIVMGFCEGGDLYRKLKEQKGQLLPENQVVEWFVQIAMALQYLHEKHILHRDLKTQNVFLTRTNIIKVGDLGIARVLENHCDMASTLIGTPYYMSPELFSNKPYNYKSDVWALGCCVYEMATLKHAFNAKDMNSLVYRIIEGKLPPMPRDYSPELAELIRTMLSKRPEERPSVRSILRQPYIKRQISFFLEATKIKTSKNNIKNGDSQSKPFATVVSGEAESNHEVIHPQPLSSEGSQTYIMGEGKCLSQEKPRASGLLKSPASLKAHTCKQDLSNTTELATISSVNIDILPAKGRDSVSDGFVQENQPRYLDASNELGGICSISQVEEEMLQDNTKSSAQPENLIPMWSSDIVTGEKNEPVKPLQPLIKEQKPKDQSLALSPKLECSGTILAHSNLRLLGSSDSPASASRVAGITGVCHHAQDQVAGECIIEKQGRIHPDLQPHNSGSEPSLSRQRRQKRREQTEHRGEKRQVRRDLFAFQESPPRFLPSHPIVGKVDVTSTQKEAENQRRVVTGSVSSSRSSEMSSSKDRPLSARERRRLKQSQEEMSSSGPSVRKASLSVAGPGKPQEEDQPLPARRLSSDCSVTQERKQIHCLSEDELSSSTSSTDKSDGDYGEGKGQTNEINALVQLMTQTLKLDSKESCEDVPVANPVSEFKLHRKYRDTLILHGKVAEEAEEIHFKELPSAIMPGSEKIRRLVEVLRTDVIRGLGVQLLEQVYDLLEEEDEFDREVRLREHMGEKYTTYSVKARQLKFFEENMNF
# Sequence of Mitogen-activated protein kinase 11 (Homo sapiens) (Q15759 whole entry): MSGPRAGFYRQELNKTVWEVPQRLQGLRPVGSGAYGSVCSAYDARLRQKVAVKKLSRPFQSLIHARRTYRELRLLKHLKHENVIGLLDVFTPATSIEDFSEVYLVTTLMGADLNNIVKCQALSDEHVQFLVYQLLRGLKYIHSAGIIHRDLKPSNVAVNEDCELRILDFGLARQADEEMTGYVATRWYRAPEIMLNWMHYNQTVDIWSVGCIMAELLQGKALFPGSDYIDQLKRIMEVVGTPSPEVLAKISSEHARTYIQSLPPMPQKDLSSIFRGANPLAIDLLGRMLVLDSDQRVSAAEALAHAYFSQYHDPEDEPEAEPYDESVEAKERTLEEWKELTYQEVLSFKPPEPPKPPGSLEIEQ
# Sequence of Tyrosine-protein kinase ABL1 (Homo sapiens) (P00519 whole entry): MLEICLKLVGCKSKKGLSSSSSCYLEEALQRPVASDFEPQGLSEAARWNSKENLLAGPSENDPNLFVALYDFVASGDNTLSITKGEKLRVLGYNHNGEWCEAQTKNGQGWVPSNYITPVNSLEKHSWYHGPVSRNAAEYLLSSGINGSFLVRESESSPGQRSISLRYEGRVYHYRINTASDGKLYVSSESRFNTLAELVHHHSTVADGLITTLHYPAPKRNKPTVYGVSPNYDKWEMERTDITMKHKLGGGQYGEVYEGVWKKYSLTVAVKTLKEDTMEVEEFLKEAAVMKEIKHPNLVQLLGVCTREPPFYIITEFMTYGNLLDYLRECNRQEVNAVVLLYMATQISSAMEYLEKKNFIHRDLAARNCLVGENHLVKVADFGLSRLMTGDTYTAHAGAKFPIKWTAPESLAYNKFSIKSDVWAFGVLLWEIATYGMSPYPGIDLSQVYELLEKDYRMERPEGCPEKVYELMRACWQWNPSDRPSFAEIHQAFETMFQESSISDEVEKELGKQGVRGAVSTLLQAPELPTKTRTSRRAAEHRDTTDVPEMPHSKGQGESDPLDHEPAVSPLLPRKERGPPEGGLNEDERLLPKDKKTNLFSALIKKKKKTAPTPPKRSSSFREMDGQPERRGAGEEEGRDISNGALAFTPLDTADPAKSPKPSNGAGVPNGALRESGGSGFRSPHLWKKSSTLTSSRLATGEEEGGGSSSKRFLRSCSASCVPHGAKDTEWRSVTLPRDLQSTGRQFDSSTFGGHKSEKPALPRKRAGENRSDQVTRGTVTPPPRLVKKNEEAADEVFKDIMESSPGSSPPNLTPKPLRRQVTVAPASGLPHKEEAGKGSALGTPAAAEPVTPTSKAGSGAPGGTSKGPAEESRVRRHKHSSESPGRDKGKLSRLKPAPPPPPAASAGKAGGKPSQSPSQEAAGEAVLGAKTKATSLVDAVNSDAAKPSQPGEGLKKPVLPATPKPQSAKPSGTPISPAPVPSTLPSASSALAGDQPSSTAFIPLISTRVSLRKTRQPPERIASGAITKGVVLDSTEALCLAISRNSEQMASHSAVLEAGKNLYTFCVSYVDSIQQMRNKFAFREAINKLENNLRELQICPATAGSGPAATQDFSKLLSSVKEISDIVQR
# Sequence of Atypical kinase COQ8A, mitochondrial (Homo sapiens) (Q8NI60 163-647 limits assumed): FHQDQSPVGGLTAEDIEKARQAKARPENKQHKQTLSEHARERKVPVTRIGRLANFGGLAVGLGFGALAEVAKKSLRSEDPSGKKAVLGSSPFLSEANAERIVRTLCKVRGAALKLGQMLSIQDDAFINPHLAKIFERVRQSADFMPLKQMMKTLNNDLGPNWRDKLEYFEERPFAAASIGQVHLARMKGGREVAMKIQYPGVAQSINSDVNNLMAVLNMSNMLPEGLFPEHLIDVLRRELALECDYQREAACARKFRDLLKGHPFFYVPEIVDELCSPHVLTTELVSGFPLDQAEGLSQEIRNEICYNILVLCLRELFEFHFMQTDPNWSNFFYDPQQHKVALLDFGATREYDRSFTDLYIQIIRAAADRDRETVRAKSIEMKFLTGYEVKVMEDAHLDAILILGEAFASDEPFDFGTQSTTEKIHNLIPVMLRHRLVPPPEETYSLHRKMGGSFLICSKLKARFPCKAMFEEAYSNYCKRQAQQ
Compound,Activity [1] [%],Activity [2] [%],Activity [3] [%],Activity [4] [%],Activity [5] [%],Activity [6] [%],Activity [7] [%]
COc1cc2nc(C)nc(N[C@H](C)c3cccc(-c4cn[nH]c4)c3)c2cc1OC,98,97,77,100,54,100,81
COc1cc2ncnc(N[C@H](C)c3cccc4ccccc34)c2cc1OC,94,96,100,97,100,78,90
